# From US5643893A, “N-substituted-(Dihydroxyboryl)alkyl purine, indole and pyrimidine derivatives, useful as inhibitors of inflammatory cytokines” (Macronex, Inc., priority 1994, dated 1997)
# Experiments:
# [1] = system: Monocytes; assay: Inhibition of monocyte chemotaxis; type: cell-based, human; set-up: key: NE: No effect; NT: Not tested; INHIB: Inhibition; STIM: Stimulation; TC: Tolerated Concentration; settings: chemoattractant FMLP
# Procedure: Inhibition of Monocyte Chemotaxis:
# Monocytes are prepared as previously described, and resuspended at 5×10^6 cells/ml in HBSS, 0.1% BSA (HBSS-BSA). Fluorophore labeling of the cells is carried out by adding calcein-AM to the above cells at a final concentration of 2 μM. Following a 30 minute incubation at 37° C. in humidified 5% CO2, the labeled monocytes are washed twice and incubated in a range of dilutions of the test materials for 60 minutes at 37° C. in humidified 5% CO2. The pre-treated, calcein-AM loaded cells are then added in triplicate to the wells of the top compartment of a NeuroProbe (Cabin, John, M.D.) 96-well chemotaxis chamber (2×10^5 cells/well) and permitted to migrate through a 10 μm thick bonded polycarbonate membrane (5 μm porosity; NeuroProbe Inc; Cabin, John, M.D.) towards the wells of the lower compartment containing the chemoattractant (FMLP) at 5×10^-9 M. After a 90 minute incubation at 37° C. in a humidified chamber, the wells of the upper chambers are aspirated, the monocyte-associated membrane removed, non-migrating cells wiped off and the filters permitted to air dry to 15 minutes. The number of cells migrating through the membranes are quantified by measuring the fluorescent intensity of the migrating cells in a fluorescent microplate reader (CytoFluor 2300, Millipore Corp., Bedford, Mass.)
# [2] = MTS; type: cell-based; settings: printed in the EC50 column; effect TC; read-out: TC Tolerated Concentration (MTS)
# [3] = system: PBMC; assay: Two-way mixed lymphocyte reaction (MLR); type: cell-based; settings: Homo sapiens, effect INHIB (Inhibition)
# Procedure: (§1) Unless otherwise described the medium for human cell culture assays is defined as follows: RPMI-1640 is supplemented with 100 U/ml penicillin, 100 μg/ml streptomycin, 2 mM L-glutamine; 1 mM Na pyruvate; 1% MEM non-essential amino acids and 25 mM HEPES; (all from GIBCO, Gaithersburg, Md.). Complete medium is defined as medium supplemented with 5% pooled, heat-inactivated (56° C., 30 minutes) human AB serum (Pel-freeze, Brown Deer, Wis.).
# Two-Way Mixed Lymphocyte Reaction (MLR):
# PBMC are prepared as described for the mitogen assays, but resuspended to 2×10^6 cells/ml in complete medium. Fifty μl of cell suspension from two different individuals is then added to each well of a 96-well flat bottom tissue culture plate. An additional 100 μl of complete medium, dexamethasone or test compounds are then added to each well, the plates are incubated for 6 days at 37° C., and then pulsed with ^3 H-thymidine and harvested as previously described.
# [4] = system: IL6; assay: Monocyte release of IL-6; type: cell-based, human; set-up: key: NE: No effect; NT: Not tested; INHIB: Inhibition; STIM: Stimulation; TC: Tolerated Concentration; settings: LPS 100 ng/ml
# [5] = system: PBMC; assay: PBMC proliferation to mitogen PHA; type: cell-based; settings: Homo sapiens, effect INHIB (Inhibition), PHA 1.0 μg/ml
# Procedure: as §1
# Human Peripheral Blood Mononuclear Cell (PBMC) Isolation:
# Venous blood is obtained from healthy volunteers and mixed with an equal volume of sterile isotonic saline/10 mM HEPES and placed into 50 ml conical polypropylene tubes in 30 ml aliquots. Each aliquot of diluted blood is underlaid with 20-25 ml of sterile Lymphocyte Separation Medium (LSM; Organon-Technika, Durham, N.C.). The tubes are centrifuged at 400 g for 40 minutes at room temperature. […] Cell concentrations for each donor are determined by counting in an haematology analyser (Serono-Baker). […]
# PBMC are adjusted to 4×10^6 /ml in complete medium. […] The contents of the wells are harvested onto glass fibre filters using a multiple automated sample harvester (Tomtec), and the incorporated ^3 H-thymidine determined by liquid scintillation spectrophotometry and represented an cpm (counts per minute) incorporated per well.
# [6] = LDH; type: cell-based; settings: printed in the EC50 column; effect TC; read-out: TC Tolerated Concentration (LDH)
# [7] = system: SUPEROXIDE; assay: Monocyte superoxide anion (O2) release; type: cell-based, human; set-up: key: NE: No effect; NT: Not tested; INHIB: Inhibition; STIM: Stimulation; TC: Tolerated Concentration; settings: zymosan A
# Procedure: Monocyte Superoxide Anion (O2) Release:
# Monocytes are prepared as described above and resuspended to 5×10^6 /ml in HBSS containing 10 Mm HEPES, 2 g/l glucose, 0.1% BSA, Ph 7.2. To each well of a 96-well flat bottom, tissue culture plate is added 100 μl of cell suspension and 100 μl of buffer or test materials. Samples are run in quadruplicate. The plate is incubated for 60 minutes at 37° C. followed by the addition of 50 μl of buffer containing cytochrome C (5 mg/ml; type VI, horse heart, Sigma) and bovine liver catalase (1500 U/ml; Sigma) in the presence of zymosan A (ZYM); 750 μg/ml; Sigma). The plate is incubated an additional 120 minutes at 37° C. during which the absorbance at 550 nm is monitored using a microplate reader incorporating dedicated software for kinetic analysis (Molecular Devices; Menlo Park, Calif.).
# [8] = system: IL1β; assay: Monocyte release of IL-1β; type: cell-based, human; set-up: key: NE: No effect; NT: Not tested; INHIB: Inhibition; STIM: Stimulation; TC: Tolerated Concentration; settings: LPS 100 ng/ml
# [9] = system: TNFα; assay: Monocyte release of TNF-α; type: cell-based; settings: Homo sapiens, effect INHIB (Inhibition), LPS 100 ng/ml
# [10] = system: GM-CSF; assay: Monocyte release of GM-CSF; type: cell-based; settings: Homo sapiens, effect INHIB (Inhibition), LPS 100 ng/ml
# [11] = system: TISSUE FACTOR; assay: Monocyte procoagulant activity (Tissue Factor); type: cell-based; settings: Homo sapiens, effect INHIB (Inhibition)
# Procedure: Purified monocytes prepared as described above are suspended at 4×10^6 cells/ml in complete medium. To each well of a 48-well flat bottomed tissue culture plate is added 0.125 ml of cell suspension. Test materials (diluted in complete medium at 2× the desired final concentration) are added in 250 μl volumes to each well. Control wells receive 250 μl of complete medium or 250 μl of IL-4 (diluted to×2 the desired final concentration of 50 ng/ml). All samples are tested at four concentrations in the presence or absence of 100 ng/ml LPS (125 μl of 4× desired final concentration added) and incubated at 37° C. in humidified 5% CO2, for 16 hours. At this time, culture supernatants are aspirated off, and the unattached cells and cell debris are removed by a 2 minute spin in a microcentrifuge at 10,000 g.l The release of cytokines and growth factors is determined in the cell-free supernatants using ELISA capture assays. In this way, testing for IL-1β, TNF-α, IL-1 receptor antagonist, IL-6, IL-8, GM-CSF and PDGF is conducted.
# Monocyte Procoagulant Activity (Tissue Factor):
# The adhered monocytes remaining on the 48-well tissue culture plates after removal of the supernatants above, are used to measure levels of Tissue Factor production. The cells are solubilized overnight at 4° C. in 10% Triton-×100 in PBS, diluted to 1% Triton-×100 with PBS then assayed by ELISA for Tissue Factor.
# [12] = system: IL8; assay: Monocyte release of IL-8; type: cell-based, human; set-up: key: NE: No effect; NT: Not tested; INHIB: Inhibition; STIM: Stimulation; TC: Tolerated Concentration; settings: LPS 100 ng/ml
# [13] = system: PAF; assay: Monocyte release of PAF; type: cell-based, human; set-up: key: NE: No effect; NT: Not tested; INHIB: Inhibition; STIM: Stimulation; TC: Tolerated Concentration; settings: zymosan A
# Procedure: (§2) Monocyte Release of PGE2, LTB4, and PAF:
# (§3) Monocytes isolated as described above, were washed and resuspended in RPMl containing 5 mg/ml HSA at 2×10^6 cells/ml and added to wells of a 48-well plates. The cells were allowed to adhere for 2 hours then washed in HBSS-BSA-HEPES buffer. Test materials were added at four concentrations (175 μl) for 60 minutes; then the monocytes were stimulated by addition of […] zymosan A (175 μl of 2× desired final concentration added). Supernatant medium was collected from the wells after 90 minutes incubation and stored at -20° C. until assayed. Supernatants were assayed for PGE2, LTB4 or PAF using specific scintillation proximity assays (SPA).
# [14] = system: LTB4; assay: Monocyte release of LTB4; type: cell-based; settings: Homo sapiens, effect INHIB (Inhibition), zymosan A
# Procedure: as §2, §3
# [15] = system: IL1ra; assay: Monocyte release of IL-1 receptor antagonist; type: cell-based, human; set-up: key: NE: No effect; NT: Not tested; INHIB: Inhibition; STIM: Stimulation; TC: Tolerated Concentration
# [16] = system: HIV-1; settings: 12 weeks, p<0.05; cited from earlier work
# [17] = system: latent HIV-1 in a monocytoid (U1) cell line; settings: cited from earlier work
# [18] = system: TNF-α; settings: cited from earlier work
# [19] = system: HIV-1 in peripheral blood mononuclear cells; settings: advanced HIV-1 infection and AIDS; cited from earlier work
smiles,measurement,setting,value
Nc1nc(Cl)c2ncn(CCCCB(O)O)c2n1 [2-Amino-6-chloro-9-(4-dihydroxyborylbutyl)purine],EFFECT (CHEMOTAXIS),[1],NE
same,MNTC,[2],100 µM
same,EC50,[3],50 µM
same,EFFECT (IL6),[4],NE
same,EC50,[5],100 µM
same,MNTC,[6],100 µM
same,EFFECT (SUPEROXIDE),[7],NE
same,EFFECT (IL1β),[8],NE
same,EC50,[9],0.57 µM
same,EC50,[10],6.8 µM
same,EC50,[11],2.1 µM
same,EFFECT (IL8),[12],NE
same,EFFECT (PAF),[13],NE
same,EC50,[14],90.5 µM
same,EFFECT (IL1ra),[15],NE
CC(=O)CCCCn1c(=O)c2c(ncn2C)n(C)c1=O [Pentoxifylline],mean HIV-1 viral load (levels with either agent alone),[16],8- to 9 fold
O=C1CCC(N2C(=O)c3ccccc3C2=O)C(=O)N1 (centres unmarked) [Thalidomide],activation of latent HIV-1,[17],suppress the activation of latent HIV-1
same,agonist-induced TNF-α protein and mRNA production,[18],reduction
same,"inhibition of activation of virus in PBMC, patients",[19],16 out of 17
Cc1cn([C@H]2C[C@H](N=[N+]=[N-])[C@@H](CO)O2)c(=O)[nH]c1=O [zidovudine],mean HIV-1 viral load (levels with either agent alone),[16],8- to 9 fold
